Common to all, as to conditions: Hit No
Assay [1] concerns the target T1, Single-strand selective monofunctional uracil DNA glycosylase (Homo sapiens) (UniProt Q53HV7).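 Note: enzymatic SMUG1 assay coupled with APE1, reading fluorescence at 594 nm released when a quenched double-stranded DNA oligonucleotide substrate is cleaved and separated.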
T1 sequence (whole entry): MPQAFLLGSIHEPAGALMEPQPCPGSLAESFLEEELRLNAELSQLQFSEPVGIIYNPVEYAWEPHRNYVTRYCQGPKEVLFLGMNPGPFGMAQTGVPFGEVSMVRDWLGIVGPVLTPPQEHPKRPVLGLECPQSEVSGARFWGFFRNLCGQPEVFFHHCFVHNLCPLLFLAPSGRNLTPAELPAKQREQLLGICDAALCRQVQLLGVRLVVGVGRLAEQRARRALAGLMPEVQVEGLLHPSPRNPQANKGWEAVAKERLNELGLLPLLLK
Description: Inhibition of SMUG1 by quantifying inhibition of SMUG1-mediated cleavage and dissociation of quenched duplex DNA oligonucleotides, measured as fluorescence at 594 nm. To generate a functional strand incision and increase turn-over this assay is coupled to APE1.

Assay [2] concerns the target Methyl-CpG-binding domain protein 4 (Homo sapiens) (UniProt O95243).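 Note: MBD4 activity read as fluorescence at 594 nm from cleavage and release of a quenched duplex DNA oligonucleotide, with APE1 coupled to incise the strand and raise turnover.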
Description: Inhibition of MBD4 by quantifying inhibition of MBD4-mediated cleavage and dissociation of quenched duplex DNA oligonucleotides, measured as fluorescence at 594 nm. To generate a functional strand incision and increase turn-over this assay is coupled to APE1.
Assay [3] has as its target T2, Endonuclease 8-like 2 (Homo sapiens) (UniProt Q969S2).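 Note: fluorescence at 594 nm reports NEIL2 cutting and release of a quenched double-stranded DNA oligo substrate, reduced signal read as inhibition.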
T2 sequence (whole entry): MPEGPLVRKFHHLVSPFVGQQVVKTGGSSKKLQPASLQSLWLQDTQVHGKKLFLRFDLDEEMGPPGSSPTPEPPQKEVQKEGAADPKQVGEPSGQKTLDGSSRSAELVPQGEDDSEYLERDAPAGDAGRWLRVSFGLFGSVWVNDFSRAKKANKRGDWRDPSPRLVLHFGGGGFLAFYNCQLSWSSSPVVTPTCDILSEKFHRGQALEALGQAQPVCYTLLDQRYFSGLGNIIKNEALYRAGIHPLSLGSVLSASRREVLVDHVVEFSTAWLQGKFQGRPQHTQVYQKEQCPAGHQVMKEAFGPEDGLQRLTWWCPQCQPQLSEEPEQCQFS
Description: Inhibition of NEIL2 by quantifying inhibition of NEIL2-mediated cleavage and dissociation of quenched duplex DNA oligonucleotides, measured as fluorescence at 594 nm.

The target of assay [4] is T3, Adenine DNA glycosylase (Homo sapiens) (UniProt Q9UIF7).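 Note: human MUTYH activity read as 594 nm fluorescence from cleavage and release of a quenched DNA duplex, coupled with APE1 for strand incision, lower signal meaning inhibition.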
T3 sequence (whole entry): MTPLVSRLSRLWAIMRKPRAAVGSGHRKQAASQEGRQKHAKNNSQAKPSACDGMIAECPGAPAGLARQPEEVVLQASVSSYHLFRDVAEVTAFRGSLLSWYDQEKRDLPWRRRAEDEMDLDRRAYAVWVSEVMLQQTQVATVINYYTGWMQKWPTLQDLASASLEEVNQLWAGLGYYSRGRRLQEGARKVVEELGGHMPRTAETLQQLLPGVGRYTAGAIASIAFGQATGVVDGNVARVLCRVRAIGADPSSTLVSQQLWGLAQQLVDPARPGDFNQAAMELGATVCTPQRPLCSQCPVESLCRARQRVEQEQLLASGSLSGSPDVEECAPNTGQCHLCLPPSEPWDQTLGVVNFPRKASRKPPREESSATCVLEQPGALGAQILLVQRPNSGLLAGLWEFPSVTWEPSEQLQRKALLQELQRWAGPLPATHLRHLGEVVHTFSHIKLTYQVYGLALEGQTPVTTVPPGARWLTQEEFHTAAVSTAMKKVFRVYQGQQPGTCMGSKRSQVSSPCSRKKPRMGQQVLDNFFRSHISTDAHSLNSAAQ
Description: Inhibition of MUTYH by quantifying inhibition of MUTYH-mediated cleavage and dissociation of quenched duplex DNA oligonucleotides, measured as fluorescence at 594 nm. To generate a functional strand incision and increase turn-over this assay is coupled to APE1.

For assay [5], the target named is Uracil-DNA glycosylase (Homo sapiens) (UniProt P13051).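 Note: UNG excision on a quenched double-stranded DNA oligo probe, with APE1 added for strand incision and turnover, read as fluorescence at 594 nm as strands separate.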
Description: Inhibition of UNG by quantifying inhibition of UNG-mediated cleavage and dissociation of quenched duplex DNA oligonucleotides, measured as fluorescence at 594 nm. To generate a functional strand incision and increase turn-over this assay is coupled to APE1.
For assay [6], the target named is N-glycosylase/DNA lyase (Homo sapiens) (UniProt O15527).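 Note: OGG1 cleavage of a quenched duplex DNA oligonucleotide, coupled to APE1 for strand incision, read as fluorescence at 594 nm.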
Description: Inhibition of OGG1 by quantifying inhibition of OGG1-mediated cleavage and dissociation of quenched duplex DNA oligonucleotides, measured as fluorescence at 594 nm. To generate a functional strand incision and increase turn-over this assay is coupled to APE1.
Assay [7] concerns the target G/T mismatch-specific thymine DNA glycosylase (Homo sapiens) (UniProt Q13569).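 Note: human TDG cleavage of quenched duplex DNA oligonucleotides coupled to APE1, strand release read as fluorescence at 594 nm, inhibition of TDG activity.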
Description: Inhibition of TDG by quantifying inhibition of TDG-mediated cleavage and dissociation of quenched duplex DNA oligonucleotides, measured as fluorescence at 594 nm. To generate a functional strand incision and increase turn-over this assay is coupled to APE1.
For assay [8], the target named is Endonuclease 8-like 1 (Homo sapiens) (UniProt Q96FI4).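 Note: fluorescence at 594 nm from quenched duplex DNA oligonucleotides released by NEIL1 cleavage and strand separation, reported as reduction of this enzyme activity.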
Description: Inhibition of NEIL1 by quantifying inhibition of NEIL1-mediated cleavage and dissociation of quenched duplex DNA oligonucleotides, measured as fluorescence at 594 nm.

Molecules are shown by their SMILES.

Chain of G/T mismatch-specific thymine DNA glycosylase (Homo sapiens) (Q13569 whole entry): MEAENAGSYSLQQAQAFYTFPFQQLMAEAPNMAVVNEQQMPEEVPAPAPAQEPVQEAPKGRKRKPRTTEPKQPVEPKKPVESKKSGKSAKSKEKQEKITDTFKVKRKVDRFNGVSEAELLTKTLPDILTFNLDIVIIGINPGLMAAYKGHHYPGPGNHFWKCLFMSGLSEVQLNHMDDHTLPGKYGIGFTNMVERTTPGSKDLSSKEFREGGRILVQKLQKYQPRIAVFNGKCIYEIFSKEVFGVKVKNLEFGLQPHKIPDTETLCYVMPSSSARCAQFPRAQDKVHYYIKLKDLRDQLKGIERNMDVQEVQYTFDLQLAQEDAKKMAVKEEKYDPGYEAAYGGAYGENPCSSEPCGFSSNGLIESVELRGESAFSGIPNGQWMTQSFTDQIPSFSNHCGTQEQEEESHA
Chain of Endonuclease 8-like 1 (Homo sapiens) (Q96FI4 whole entry): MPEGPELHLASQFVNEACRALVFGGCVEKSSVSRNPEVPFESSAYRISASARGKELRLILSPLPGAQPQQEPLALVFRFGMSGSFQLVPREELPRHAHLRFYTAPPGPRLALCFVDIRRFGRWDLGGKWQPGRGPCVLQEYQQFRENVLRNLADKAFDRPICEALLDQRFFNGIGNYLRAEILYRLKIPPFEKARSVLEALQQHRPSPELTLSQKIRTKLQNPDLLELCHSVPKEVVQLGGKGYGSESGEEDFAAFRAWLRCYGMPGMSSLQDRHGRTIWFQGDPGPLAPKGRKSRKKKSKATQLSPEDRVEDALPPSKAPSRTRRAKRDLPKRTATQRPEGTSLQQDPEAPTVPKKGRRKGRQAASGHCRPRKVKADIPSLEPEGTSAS
Chain of Uracil-DNA glycosylase (Homo sapiens) (P13051 whole entry): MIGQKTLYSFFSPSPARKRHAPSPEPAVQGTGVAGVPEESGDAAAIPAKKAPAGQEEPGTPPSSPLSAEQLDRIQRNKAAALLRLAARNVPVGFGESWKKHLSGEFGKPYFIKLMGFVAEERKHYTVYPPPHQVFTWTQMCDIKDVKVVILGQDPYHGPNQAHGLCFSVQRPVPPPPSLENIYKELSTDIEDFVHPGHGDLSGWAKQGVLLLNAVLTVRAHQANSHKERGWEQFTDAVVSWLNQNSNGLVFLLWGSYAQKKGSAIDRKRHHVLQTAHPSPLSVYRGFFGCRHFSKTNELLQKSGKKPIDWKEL
Chain of N-glycosylase/DNA lyase (Homo sapiens) (O15527 whole entry): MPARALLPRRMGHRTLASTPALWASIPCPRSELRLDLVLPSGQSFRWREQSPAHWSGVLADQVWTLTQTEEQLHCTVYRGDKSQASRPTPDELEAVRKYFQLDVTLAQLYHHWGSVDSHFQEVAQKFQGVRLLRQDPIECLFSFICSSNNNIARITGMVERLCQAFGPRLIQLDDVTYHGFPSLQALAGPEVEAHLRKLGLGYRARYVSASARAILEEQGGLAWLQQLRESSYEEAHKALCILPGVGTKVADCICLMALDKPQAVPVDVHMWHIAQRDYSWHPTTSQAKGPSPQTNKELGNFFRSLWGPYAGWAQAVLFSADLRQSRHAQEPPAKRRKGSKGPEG
Chain of Methyl-CpG-binding domain protein 4 (Homo sapiens) (O95243 whole entry, the tested form may be a part): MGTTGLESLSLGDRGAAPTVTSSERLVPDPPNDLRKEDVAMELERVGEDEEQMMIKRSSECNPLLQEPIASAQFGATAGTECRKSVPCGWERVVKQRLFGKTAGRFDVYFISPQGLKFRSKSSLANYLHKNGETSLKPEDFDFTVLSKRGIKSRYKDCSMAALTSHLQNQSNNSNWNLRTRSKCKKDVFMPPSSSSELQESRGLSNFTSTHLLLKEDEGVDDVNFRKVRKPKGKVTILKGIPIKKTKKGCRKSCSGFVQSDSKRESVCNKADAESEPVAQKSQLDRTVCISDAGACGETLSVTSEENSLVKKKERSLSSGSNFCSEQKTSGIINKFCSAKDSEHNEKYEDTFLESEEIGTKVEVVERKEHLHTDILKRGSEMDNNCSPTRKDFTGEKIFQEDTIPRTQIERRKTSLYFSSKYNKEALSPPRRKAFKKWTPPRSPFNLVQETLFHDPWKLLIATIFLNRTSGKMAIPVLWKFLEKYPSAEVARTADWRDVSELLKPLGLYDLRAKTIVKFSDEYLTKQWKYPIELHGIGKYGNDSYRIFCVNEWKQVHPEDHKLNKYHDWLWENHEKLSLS

Consider `CC[C@H](CO)Nc1nc(NCc2ccccc2)c2ncn(C(C)C)c2n1`, for which the inhibition (commonly the relative decrease from the control value, in per cent) in assay [1] (Compound Concentration 10.0 uM) is -5.13%; in assay [2] (Compound Concentration 10.0 uM), -1.52%; in assay [3] (Compound Concentration 10.0 uM) it was -5.42%; in assay [4] (Compound Concentration 10.0 uM), -2.91%; in assay [5] (Compound Concentration 10.0 uM), 0.726%; in assay [6] (Compound Concentration 10.0 uM), -9.3%. Also, the inhibition is 38.4% in assay [7] (Compound Concentration 10.0 uM) and 6.48% in assay [8] (Compound Concentration 10.0 uM).

On to `O=C(Cc1ccccc1)Nc1nnc(N2CC[C@@H]3[C@H]2CN3c2cccnn2)s1`, for which the inhibition in assay [1] (Compound Concentration 1.0 uM) is 9.42%; in assay [2] (Compound Concentration 1.0 uM) it was 66%; in assay [3] (Compound Concentration 1.0 uM), -8.65%; in assay [4] (Compound Concentration 1.0 uM) it was 7.76%; in assay [5] (Compound Concentration 1.0 uM) it was 9.87%; in assay [6] (Compound Concentration 1.0 uM), 3.62%. Besides, the inhibition worked out at 43.7% in assay [7] (Compound Concentration 1.0 uM) and 0.316% in assay [8] (Compound Concentration 1.0 uM).

With `O=C(NC[C@@H]1[C@H]2CN(C(=O)OCc3cc(C(F)(F)F)cc(C(F)(F)F)c3)C[C@@H]12)c1ccc2[nH]nnc2c1`, the inhibition in assay [1] (Compound Concentration 10.0 uM) was 8.85%; in assay [2] (Compound Concentration 10.0 uM) it was 48.7%; in assay [3] (Compound Concentration 10.0 uM), -6.36%; in assay [4] (Compound Concentration 10.0 uM), -6.99%; in assay [5] (Compound Concentration 10.0 uM), -1.24%; in assay [6] (Compound Concentration 10.0 uM), 19.9%. The inhibition in assay [7] (Compound Concentration 10.0 uM) is 43.8%; in assay [8] (Compound Concentration 10.0 uM) it was -8.32%.

`CNC(=O)Nc1ccc2c(c1)[C@@]1(CC2)OC(=O)N(CC(=O)N(Cc2ccc(F)cc2)[C@@H](C)C(F)(F)F)C1=O`: the inhibition in assay [1] (Compound Concentration 1.0 uM) is 22.4%; in assay [2] (Compound Concentration 1.0 uM), 67.4%; in assay [3] (Compound Concentration 1.0 uM), -2.53%; in assay [4] (Compound Concentration 1.0 uM), 0.0592%; in assay [5] (Compound Concentration 1.0 uM), 4.4%; in assay [6] (Compound Concentration 1.0 uM) it was -0.951%. The results for the inhibition in assay [7] (Compound Concentration 1.0 uM) and in assay [8] (Compound Concentration 1.0 uM) were 98.8% and -6.35%, respectively.

As to `COc1cc(Nc2ncc3c(n2)-c2ccc(Cl)cc2C(c2c(F)cccc2OC)=NC3)ccc1C(=O)O`, the inhibition was 19.5% in assay [1] (Compound Concentration 1.0 uM); 19.9% in assay [2] (Compound Concentration 1.0 uM); -9.46% in assay [3] (Compound Concentration 1.0 uM); -7.52% in assay [4] (Compound Concentration 1.0 uM); -1.28% in assay [5] (Compound Concentration 1.0 uM); 4.44% in assay [6] (Compound Concentration 1.0 uM). Moreover, the inhibition in assay [7] (Compound Concentration 1.0 uM) was 47.7%; in assay [8] (Compound Concentration 1.0 uM) it was -3.03%.

Turning to `O=C(NNS(=O)(=O)c1ccccc1)c1cc(-c2ccnnc2)ccc1F`, the inhibition worked out at 13.8% in assay [1] (Compound Concentration 10.0 uM); 88.3% in assay [2] (Compound Concentration 10.0 uM); 5.38% in assay [3] (Compound Concentration 10.0 uM); 0.332% in assay [4] (Compound Concentration 10.0 uM); 6.08% in assay [5] (Compound Concentration 10.0 uM); 8.54% in assay [6] (Compound Concentration 10.0 uM). Also, the inhibition in assay [7] (Compound Concentration 10.0 uM) was 49.7%; in assay [8] (Compound Concentration 10.0 uM), -4.38%.

On to `Nc1cnc(N2CCc3cc(S(=O)(=O)Nc4c(F)cc(Cl)cc4F)cc(N4CCCC4=O)c32)nc1`, for which the inhibition in assay [1] (Compound Concentration 1.0 uM) is 6.61%; in assay [2] (Compound Concentration 1.0 uM), 55.9%; in assay [3] (Compound Concentration 1.0 uM), -0.999%; in assay [4] (Compound Concentration 1.0 uM), -0.378%; in assay [5] (Compound Concentration 1.0 uM) it was -1.59%; in assay [6] (Compound Concentration 1.0 uM), 0.18%. Further, the inhibition was 41.3% in assay [7] (Compound Concentration 1.0 uM) and -8.47% in assay [8] (Compound Concentration 1.0 uM).

With `CCN(Cc1ccc(Cl)cc1)c1ncc(C(=O)NCCCN2CCCC2=O)c(NC2CCCC2)n1`, the inhibition is 17.5% in assay [1] (Compound Concentration 10.0 uM); -8.97% in assay [2] (Compound Concentration 10.0 uM); -8.65% in assay [3] (Compound Concentration 10.0 uM); 3.34% in assay [4] (Compound Concentration 10.0 uM); 8.58% in assay [5] (Compound Concentration 10.0 uM); -2.04% in assay [6] (Compound Concentration 10.0 uM). Moreover, the figures for the inhibition in assay [7] (Compound Concentration 10.0 uM) and in assay [8] (Compound Concentration 10.0 uM) were 63.4% and -2.37%, respectively.

Regarding `CC(=O)Nc1nc(C)c(S(=O)(=O)Nc2ccc(C(O)(C(F)(F)F)C(F)(F)F)cc2)s1`, the inhibition in assay [1] (Compound Concentration 10.0 uM) came out at 23%; in assay [2] (Compound Concentration 10.0 uM), 60.1%; in assay [3] (Compound Concentration 10.0 uM) it was 2.83%; in assay [4] (Compound Concentration 10.0 uM), 13.4%; in assay [5] (Compound Concentration 10.0 uM), 5.29%; in assay [6] (Compound Concentration 10.0 uM) it was 9.77%. Further, the values for the inhibition in assay [7] (Compound Concentration 10.0 uM) and in assay [8] (Compound Concentration 10.0 uM) were 98.2% and 1.83%, respectively.

With `O=C(Nc1ccc(C(O)(C(F)(F)F)C(F)(F)F)cc1)c1ccc(C(F)(F)F)cc1`, the inhibition in assay [1] (Compound Concentration 10.0 uM) is 23.5%; in assay [2] (Compound Concentration 10.0 uM) it was 54.8%; in assay [3] (Compound Concentration 10.0 uM) it was -7.89%; in assay [4] (Compound Concentration 10.0 uM) it was 3.77%; in assay [5] (Compound Concentration 10.0 uM) it was 11.1%; in assay [6] (Compound Concentration 10.0 uM), 30.3%. Besides, the inhibition in assay [7] (Compound Concentration 10.0 uM) is 98%; in assay [8] (Compound Concentration 10.0 uM), -5.59%.

Source of the values: ChEMBL document CHEMBL5665443, “Enzyme Inhibitor Single Concentration assay results for EUbOPEN Chemogenomics Library” (2024).
